From patent US20170172955A1, “Treatment of Mixed Dyslipidemia” (priority 2015, published 2017)

What was measured:
[1] = system: plasma fibrinogen; assay: Fibrinogen levels in rats (electro immunoassay); assay type: in vivo, rat; conditions: male Sprague-Dawley rats, 100 mg/kg/day oral, 14 days
Protocol: Fifty-Six male Sprague-Dawley rats were obtained from Charles River Laboratories. All animals were allowed normal rat chow (Ralston-Purina) and water ad libitum in temperature-controlled rooms, under a 12-hour light, 12-hour dark cycle beginning with lights on at 6 AM. Rats were distributed to 7 groups of 8 rats per group. […] Control animals received vehicle alone. […] CI-719 is gemfibrozil. […] The plasma fibrinogen plasma levels were determined by electro immunoassay. […] Data are shown in FIG. 12 as mean±SEM of as percent of control fibrinogen levels. *p<0.001, two-sided unpaired t-test, compared to control.

[2] = system: cholesterol and triglyceride synthesis; assay: Inhibition of plasma and hepatic cholesterol and triglyceride synthesis in apoB100/Lp(a) mice; assay type: in vivo, mouse
Protocol: The apoB100/Lp(a) (cross of mice transgenic for human apoB100 and human apo(a)) mice) were obtained from Charles River. There were 8 animals per treatment group. […] Mice were acclimated for a minimum of 7 days to a reverse 12 hour light/12 hour dark cycle prior to administration of the first dose of test drug or vehicle. […] Test drugs and vehicle were given once daily. Thirty minutes after the eighth dose, 12.5 μCi [^14C] sodium acetate was administered. […] Individual plasma samples were acquired by placing whole blood samples into EDTA loaded centrifuge tubes and centrifuged. Plasma was transferred to new tubes and stored at −20° C. until assayed for [^14C] labeled cholesterol. Liver samples were flash frozen in liquid nitrogen and stored at −80° C. until assayed for [^14C] labeled cholesterol and triglycerides. Assay for plasma [^14C] labeled cholesterol. […] Additionally, 0.025 μCi […] (Perkin Elmer Life Sciences Inc. Boston, Mass.) was added to each sample, and to 2 or 3 spike controls in 7-mL scintillation vials, as an extraction internal standard. […] Samples were vortexed and saponified at 75° C. for 1 hour. After the samples cooled […] [^14C] labeled cholesterol was extracted with 2.5 mL petroleum ether per sample and shaken for 10 minutes, and then centrifuged for 10 minutes at 0° C. […] Each sample was then dissolved in 0.25 mL of 2 parts chloroform to 1 part per methanol by sonication. Five mL scintillant was added to each sample and the spike controls for direct [^3H] and [^14C] […] per minute (DPM) recording using a Packard 2500TR Tri-Carb Liquid Scintillation Analyzer. […] Assay for liver [^14C] labeled cholesterol and triglycerides. Frozen liver samples were kept on dry ice during sample weighing procedures and assay preparations. Each sample was homogenized in a solution of ice-cold methanol;0.5 N acetic acid. […] Samples were then vortexed and centrifuged for 20 minutes at 3000 rpm at room temperature to separate the phases. The lower chloroform layer was transferred to new vials. The remaining upper aqueous phase was extracted in like manner with 15 mL chloroform 2 more times. […] The aqueous phase was discarded and the chloroform phase was washed 2 times in like manner with 15 mL 1 part methanol to 1 part water, discarding the aqueous phase. The chloroform samples were evaporated under nitrogen gas, and resuspended in 600 μL chloroform and 30 μL removed for scintillation counting. Sample volumes were adjusted for corrected percent recovery and a calculated volume to load based on total liver weight. Calculated volumes were spotted onto TLC plates and dried in an 80° C. oven. After the plates had cooled to room temperature, they were developed in 102 mL isooctane:diethyl ether:glacial acetic acid, 75:25:2, respectively. Plates were dried in an 80° C. oven and allowed to cool to room temperature, wrapped in plastic wrap, and exposed to the phosphorimager screen. Imagequant software was used to quantitate cholesterol and triglyceride bands.

[3] = system: STAM model of non-alcoholic steatohepatitis (NASH)
Protocol: Telmisartan (Micardis®) was purchased from Boehringer Ingelheim GmbH (Germany) and dissolved in pure water.
Telmisartan was administered at a dose of 10 mg/kg once daily.
Measurement of whole blood and plasma biochemistry: Eight-hour fasting blood samples were collected from facial vein at 3 days prior to termination.
Eight-hour fasting blood glucose was measured in whole blood using Life Check (EIDIA Co. Ltd., Japan). For plasma biochemistry, eight-hour fasting blood was collected in polypropylene tubes with anticoagulant (Novo-Heparin, Mochida Pharmaceutical, Japan) and centrifuged at 1,000×g for 15 minutes at 4° C. The supernatant was collected and stored at −80° C. until use. Plasma insulin levels were quantified by Ultra Sensitive Mouse Insulin ELISA kit (Morinaga Institute of Biological Science, Inc., Japan).
On the day of termination, non-fasting blood glucose was measured in whole blood using Life Check. For plasma biochemistry, non-fasting blood was collected in polypropylene tubes with anticoagulant (Novo-Heparin) and centrifuged at 1,000×g for 15 minutes at 4° C. The supernatant was collected and stored at −80° C. until use. Plasma ALT, AST, ALP, GGT, BUN, creatinine and total bilirubin levels were measured by FUJI DRI-CHEM 7000 (Fujifilm Corporation, Japan). Plasma ketone body levels were quantified by EnzyChrom™ Ketone Body Assay Kit (BioAssay Systems, USA). […]
Histological analyses: For HE staining, sections were cut from paraffin blocks of liver tissue prefixed in Bouin's solution and stained with Lillie-Mayer's Hematoxylin (Muto Pure Chemicals Co., Ltd., Japan) and eosin solution (Wako Pure Chemical Industries). […] To visualize collagen deposition, Bouin's fixed liver sections were stained using picro-Sirius red solution (Waldeck, Germany). […]
Statistical analyses were performed using Bonferroni Multiple Comparison Test on GraphPad Prism 6 (GraphPad Software Inc., USA). […] Results were expressed as mean±SD.
The viability, clinical signs and behavior were monitored daily. Body weight was recorded before the treatment. […] The animals were sacrificed by exsanguination through direct cardiac puncture under isoflurane anesthesia (Pfizer Inc.) at 9 weeks of age.

[4] = 3 mg/kg oral once daily, 8 doses
[5] = STAM mice, telmisartan 10 mg/kg PO QD, Day 18, 8 hours of fasting
[6] = STAM mice, telmisartan 10 mg/kg PO QD, termination (Day 21)
[7] = telmisartan 10 mg/kg PO QD, n = 7

Compound: Cc1ccc(C)c(OCCCC(C)(C)C(=O)O)c1 [Gemfibrozil, gemfibrozil, reference compound]
- reduction in plasma fibrinogen levels compared with control [1]: 31%

Compound: CCC(C)(C)C(=O)O[C@H]1C[C@@H](C)C=C2C=C[C@H](C)[C@H](CC[C@@H]3C[C@@H](O)CC(=O)O3)[C@H]21 [Simvastatin, simvastatin, reference compound]
- inhibition of cholesterol synthesis as measured in plasma ([2]; 3 mg/kg): 59%
- lowering of cholesterol synthesis in liver tissue ([2]; 3 mg/kg): 82%
- hepatic Cholesterol synthesis ([14C] sodium acetate), % Change from Vehicle [2, 4]: −82 ± 8 %
- hepatic Triglycerides synthesis ([14C] sodium acetate), % Change from Vehicle [2, 4]: 4.0 ± 15%

Compound: CCCc1nc2c(C)cc(-c3nc4ccccc4n3C)cc2n1Cc1ccc(-c2ccccc2C(=O)O)cc1 [Telmisartan, reference compound]
- Sirius Red positive area (mean ± SD) ([3]; STAM mice, telmisartan 10 mg/kg PO QD 6-9 wks): 0.48 ± 0.09%
- NAFLD Activity score, NAS (mean ± SD) ([3]; STAM mice, telmisartan 10 mg/kg PO QD 6-9 wks, n = 7): 2.6 ± 1.0
- mortality during the treatment period ([3]; STAM mice, telmisartan 10 mg/kg PO QD, before reaching Day 21): one mouse was found dead
- Fasting blood glucose (mean ± SD) [3, 5]: 742 ± 90 mg/dL
- Plasma insulin (mean ± SD) [3, 5]: 0.16 ± 0.04 ng/mL
- Liver hydroxyl-proline (mean ± SD) [3, 6]: 0.91 ± 0.21 μg/mg total protein
- Liver triglyceride (mean ± SD) [3, 6]: 31.7 ± 6.4 mg/g liver
- Non-fasting blood glucose (mean ± SD) [3, 6]: 856 ± 62 mg/dL
- Plasma ALT (mean ± SD) [3, 6]: 39 ± 15 U/L
- Plasma AST (mean ± SD) [3, 6]: 121 ± 38 U/L
- Plasma ketone body (mean ± SD) [3, 6]: 8.11 ± 3.27 mM
- number of mice with Hepatocyte ballooning score 0 (None) [3, 7]: 2
- number of mice with Hepatocyte ballooning score 1 (Few balloon cells) [3, 7]: 4
- number of mice with Hepatocyte ballooning score 2 (Many cells/prominent ballooning) [3, 7]: 1
- number of mice with Lobular inflammation score 0 (No foci) [3, 7]: 2
- number of mice with Lobular inflammation score 1 (<2 foci/200x) [3, 7]: 4
- number of mice with Lobular inflammation score 2 (2-4 foci/200x) [3, 7]: 1
- number of mice with Steatosis score 0 (<5%) [3, 7]: 1
- number of mice with Steatosis score 1 (5-33%) [3, 7]: 6
